One data set concerns the target T1, human R1 (Homo sapiens, UniProt P23921).
T1 construct: made in house; host or cells: Escherichia coli
T1 sequence (P23921 1-792): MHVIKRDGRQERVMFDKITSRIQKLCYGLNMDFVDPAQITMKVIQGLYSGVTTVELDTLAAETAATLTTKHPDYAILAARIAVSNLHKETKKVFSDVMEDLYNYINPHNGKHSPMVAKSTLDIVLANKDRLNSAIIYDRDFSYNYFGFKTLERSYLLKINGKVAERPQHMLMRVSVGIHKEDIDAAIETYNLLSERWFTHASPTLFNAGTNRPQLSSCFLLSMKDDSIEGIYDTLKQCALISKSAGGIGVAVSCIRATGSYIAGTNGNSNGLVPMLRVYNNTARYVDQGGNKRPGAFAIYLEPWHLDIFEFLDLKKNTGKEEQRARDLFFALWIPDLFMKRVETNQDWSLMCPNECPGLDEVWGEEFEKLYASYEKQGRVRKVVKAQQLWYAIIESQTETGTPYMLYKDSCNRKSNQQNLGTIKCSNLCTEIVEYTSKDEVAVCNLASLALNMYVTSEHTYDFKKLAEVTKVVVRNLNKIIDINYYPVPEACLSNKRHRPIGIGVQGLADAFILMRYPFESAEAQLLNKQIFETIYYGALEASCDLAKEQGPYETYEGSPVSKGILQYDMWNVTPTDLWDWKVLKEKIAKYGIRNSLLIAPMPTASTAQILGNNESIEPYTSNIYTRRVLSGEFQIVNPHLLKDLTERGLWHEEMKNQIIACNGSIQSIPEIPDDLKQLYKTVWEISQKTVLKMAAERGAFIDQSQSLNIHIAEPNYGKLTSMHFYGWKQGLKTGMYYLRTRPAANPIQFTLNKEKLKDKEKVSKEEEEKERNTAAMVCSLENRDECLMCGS
In words: Surface plasmon resonance binding analysis. The conditions noted are these: SPR, steady-state affinity, three independent experiments. How it is done:
The binding affinity of TAS1553 to the R1 subunit was investigated using surface plasmon resonance (SPR) binding analysis. […] Next, we evaluated the inhibitory effect of TAS1553 against the enzymatic activity of RNR, consisting of R1 and R2 recombinant proteins. RNR activity was determined by its ability to reduce cytidine diphosphate (CDP) to deoxycytidine diphosphate (dCDP), based on a previous report. […] In addition to the inhibitory effect on RNR, TAS1553 was evaluated in a Eurofins LeadProfilingScreen panel assay including 68 proteins, such as ion channels, transporters, nuclear receptors, and G protein-coupled receptors, to examine its potential adverse activity.
(In SPR one partner is held on a chip, and binding of the other changes the refractive index at the surface.)

For data set [1], the system named is human solid and hematological cancer cell lines. In words: Cell proliferation assay (CellTiter-Glo), cell line panel. The data set is classed as cell-based. Conditions: 72 h, range over solid and hematological cancer cell lines, 3 days exposure. How it is done: The growth inhibitory effect of TAS1553 was determined by calculating the GI50 value against human solid and hematological cancer cell lines.
(§1) Cell proliferation assay was performed as reported previously. Briefly, cells were plated and incubated for 1 day, followed by 3 days of exposure to the compound. After compound exposure, viable cells were detected by using the CellTiter-Glo luminescent cell viability assay (Promega). GI50 values were calculated using the SAS software package. The experiment was performed in triplicates.
(In general: In ATP-based viability assays light output follows the ATP content of the culture.)

For the next data set, the system named is MV-4-11 cells. In words: Cell proliferation assay (CellTiter-Glo), MV-4-11. The data set is classed as cell-based. The conditions noted are these: Homo sapiens, MV4-11, 72 h; MV-4-11, 3 days exposure. The procedure:
Next, we evaluated both concentration-dependent and time-dependent effects of TAS1553 on the dATP pool in HCC38 and MV-4-11 cell lines using absolute quantification. After 2 h of TAS1553 exposure, there was a concentration-dependent reduction of intracellular dATP pool in both cell lines (Fig. 2c). Furthermore, the intracellular dATP pool was reduced within 30 minutes when treated with TAS1553 at 1 or 10 µmol/L in both cell lines (Fig. 2d), consistent with its inhibitory effect on the protein-protein interaction (Fig. 2a).
as §1

The subject of the next data set is MV-4-11 xenograft. In words: Antitumor activity in rats bearing MV-4-11 xenografts. The data set is classed as in vivo. How it is done: (§2) Next, we evaluated the antitumor activity of a high-dose administration of TAS1553 and cytarabine in rats bearing MV-4-11 xenografts. […] The rats were treated with cytarabine for 5 days at 16 and 32 mg/kg. […] In addition to the hematologic tumor, we evaluated the antitumor activity of TAS1553 in mice implanted with HCC38 cell line as a solid tumor model. […] Finally, TAS1553 was evaluated for its survival benefit in a mouse model. To achieve this, we established mice bone marrow cells harboring the human MLL-AF9 fusion gene, which is known as a driver gene for AML in humans as well as mice[48].
For the subcutaneous implantation model of MV-4-11, F344/NJcl-rnu/rnu rats were irradiated with X-ray (4 Gy) to improve the efficiency of xenograft implantation. Two days after X-ray irradiation, MV-4-11 cells suspended in PBS with 50 vol% Matrigel were inoculated into the rats (2 × 10^7 cells/animal). In the mice subcutaneous implantation model, HCC38 cells suspended same as above were inoculated into male BALB/cAJcl-nu/nu mice (1 × 10^7 cells /body). […] Antitumor activity and body weight change were evaluated as previously reported. Dunnett test using the SAS software package in EXSUS (CAC Croit) was used to compare the tumor volume (P < 0.05).

A further data set concerns HCC38 xenograft. In words: Antitumor activity in mice bearing HCC38 xenografts. The data set is classed as in vivo, mouse. The conditions noted are these: 100 mg/kg oral once daily for 14 days. The procedure: as §2, with “mice[48]. Mice were transplanted with the cells through the tail vein and the treatment with TAS1553 was started 11 days post-implantation.” for “mice[48].”
For the subcutaneous implantation model of MV-4-11, F344/NJcl-rnu/rnu rats were irradiated with X-ray (4 Gy) to improve the efficiency of xenograft implantation. Two days after X-ray irradiation, MV-4-11 cells suspended in PBS with 50 vol% Matrigel were inoculated into the rats (2 × 10^7 cells/animal). In the mice subcutaneous implantation model, HCC38 cells suspended same as above were inoculated into male BALB/cAJcl-nu/nu mice (1 × 10^7 cells /body). The animals were randomized and administered with the compound for 14 days. Antitumor activity and body weight change were evaluated as previously reported. Dunnett test using the SAS software package in EXSUS (CAC Croit) was used to compare the tumor volume (P < 0.05).

The mark [2] stands for this setting: 400 mg/kg oral once daily for 14 days.

Molecules are shown by their SMILES.

This note sets out measurements from article PMC9184620, “TAS1553, a small molecule subunit interaction inhibitor of ribonucleotide reductase, exhibits antitumor activity by causing DNA replication stress” (Communications Biology, 2022).

For orientation: Kd means the free concentration of one partner at which half of the binding sites on the other are occupied at equilibrium, for simple one-to-one binding. A word on the GI50: it is the concentration at which growth is held to half of that of the control. High values mean lower sensitivity of the cells, low ones greater sensitivity of the cells.

On human R1, `Cc1ccc(F)c([C@@H](C)[C@H](NS(=O)(=O)c2ccc(Cl)cc2C(N)=O)c2n[nH]c(=O)o2)c1C` [TAS1553, 5-chloro-2-{N-[(1S,2R)-2-(6-fluoro-2,3-dimethylphenyl)-1-(5-oxo-4,5-dihydro-1,3,4-oxadiazol-2-yl)propyl]sulfamoyl}benzamide] yielded a Kd of 0.0349 ± 0.0009 µM. Also, the GI50 in data set [1] is 0.228 to 4.15 µM; with MV-4-11 cells, 0.393 µM. The figures for the “T/C (mean tumor volume treated/control) on Day 15” value in the data set on MV-4-11 xenograft (50 mg/kg oral once daily for 14 days), with MV-4-11 xenograft (100 mg/kg oral once daily for 14 days) and in the data set on MV-4-11 xenograft (200 mg/kg oral once daily for 14 days) were 52.0%, 45.0% and 29.4%, respectively. Further, the body weight change entry in the data set with MV-4-11 xenograft (setting [2]) was “without a reduction in body weight”; in the data set on MV-4-11 xenograft (50, 100, 200 mg/kg oral once daily for 14 days) it was “none of the groups showed any dramatic weight loss”. In addition, in the data set on MV-4-11 xenograft (setting [2]), the tumor growth outcome is reported as “tumor disappearance in all the treated animals”. Moreover, in the data set on HCC38 xenograft, the T/C ratio is 40.4%.
